{"source": "PubChem BioAssay AID1645848"}
{"details": "buffer; pH 7.4; 6.0 h; 150.0 µM", "units": {"solubility kinetic": "µg/mL"}}
{"smiles": "C[S+](=O)([O-])c1ccc(-c2nc(C(=O)N3CCOCC3)n3ccncc23)cc1", "solubility kinetic": "> 57"}
{"smiles": "Cc1ccc2c(c1)[nH]c1c(N3CCN(Cc4ccccc4)CC3)ncnc12", "solubility kinetic": "< 1"}
{"smiles": "COc1nccc(-c2nc(Nc3ccc(F)c(F)c3)c3ccccc3n2)c1OC", "solubility kinetic": "< 1"}
{"smiles": "CC(=O)N1CCc2cc(-c3nc(NC(=O)Cc4ccc5c(c4)OCO5)sc3C)ccc21", "solubility kinetic": "< 1"}
{"smiles": "CC1=C(C(=O)NC2CCCC2)C(c2nn(C)cc2Cl)N=C(Nc2nc3ccccc3o2)N1", "note": "(centres undefined)", "solubility kinetic": 10}
{"smiles": "COc1ccccc1-n1cnc2cc(C(=O)N3CCCCC3)ccc21", "solubility kinetic": "> 50"}
{"smiles": "CCc1cccc(-n2nnc(-c3nsc(NC(=O)c4cccc(OC)c4)n3)c2C)c1", "solubility kinetic": "< 1"}
{"smiles": "COc1cccc(NC(=O)c2cc(-c3ccc(C)c(C)c3)nc3ccccc23)c1", "solubility kinetic": "< 1"}
{"smiles": "FC(F)(F)c1cccc(N2CCN(C(=S)Nc3ccccn3)CC2)c1", "solubility kinetic": 13.4}
{"smiles": "Nc1ccc(S(=O)(=O)Nc2cnccc2C(=O)Nc2nc(-c3ccccc3)cs2)cc1", "solubility kinetic": 43.2}
{"smiles": "COc1cccc(CNC(=O)CCCn2nc(C)c3c(C)n(-c4ccc(C)cc4)nc3c2=O)c1OC", "solubility kinetic": 2.58}
{"smiles": "Cc1ccc(C)c(NC2=C(c3ccc(C(F)(F)F)cc3)C(=O)c3ccccc32)c1", "solubility kinetic": "< 1"}
{"smiles": "O=S(=O)(Nc1ccc(-c2cccnc2)c2cccnc12)c1cccc(C(F)(F)F)c1", "solubility kinetic": "< 1"}
{"smiles": "CCOc1ccc(CCNC(=O)c2cc3cnccc3n2Cc2cccc(C)c2)cc1OCC", "solubility kinetic": "> 68"}
{"smiles": "Cc1c(C)n(Cc2ccccc2)c2ccc(C(=O)OCCN(C)C)cc12", "solubility kinetic": 33}
{"smiles": "Cc1nc(-c2ccco2)cc([C@H]2CN3CC[C@H]2C[C@@H]3CNC(=O)NC2CCCCC2)n1", "solubility kinetic": "> 63"}
{"smiles": "COC(=O)c1ccc2c(C(=Nc3ccc(N(C)C(=O)CN4CCN(C)CC4)cc3)c3ccccc3)c(O)[nH]c2c1", "solubility kinetic": "< 1"}
{"smiles": "Fc1cc(Nc2nc(-c3ccncc3)nc3ccccc23)ccc1OC(F)(F)F", "solubility kinetic": "< 1"}
{"smiles": "Cc1noc(C)c1-c1ccc2ncnc(NC(C)c3ccccc3)c2c1", "note": "(centres undefined)", "solubility kinetic": 12.6}
{"smiles": "CCCN1CNc2c(c(=O)[nH]c(=S)n2CCc2cccc(Cl)c2Cl)C1", "solubility kinetic": 13.4}
{"smiles": "C=C[C@]1(C)C[C@@H](OC(=O)CSC(C)(C)CNC(=O)[C@H](N)C(C)C)[C@]2(C)[C@H](C)CC[C@]3(CCC(=O)[C@H]32)[C@@H](C)[C@@H]1O", "solubility kinetic": 36.6}
{"smiles": "CN[C@@H](C)C(=O)N[C@@H]1C(=O)N(Cc2c(C)ccc3ccccc23)c2ccc(C#N)cc2N(C(C)=O)[C@H]1C", "solubility kinetic": "> 73"}
{"smiles": "O=C(Nc1ccc2c(N3CCOCC3)ncnc2c1)c1cccc(Br)c1", "solubility kinetic": 9.48}
{"smiles": "Cc1ccc(S(=O)(=O)n2cc(C(=O)Nc3ccc(-c4ccccc4)cc3)c3ccccc32)cc1", "solubility kinetic": "< 1"}
{"smiles": "N#Cc1ccccc1CSc1nc2ncc(Br)cc2[nH]1", "solubility kinetic": 1.09}
{"smiles": "O=C(Nc1ccc(F)cc1F)c1cc(-c2ccc[nH]2)n[nH]1", "solubility kinetic": "> 29"}
{"smiles": "CC(=O)c1cccc(-c2csc3ncnc(Sc4nnnn4C)c23)c1", "solubility kinetic": 14.1}
{"smiles": "Cc1cccc(-n2cnc3cc(C(=O)N4CCCCC4)ccc32)c1", "solubility kinetic": "> 47"}
{"smiles": "Cc1nn2c(c1-c1ccccc1-c1ccccc1)N(Cc1ccccc1)CCC2", "solubility kinetic": 4.07}
{"smiles": "O=C(NCCCc1ccccc1)c1cccc(-c2cc(O)c3ncccc3c2)c1", "solubility kinetic": "< 1"}
{"smiles": "CCOc1ccc(CCNC(=O)c2cc3sccc3n2Cc2ccncc2)cc1OCC", "solubility kinetic": 4.18}
{"smiles": "Cc1ccc2nc(NC3=NC(c4[nH]ncc4Cl)C4=C(CCCC4=O)N3)oc2c1", "note": "(centres undefined)", "solubility kinetic": "< 1"}
{"smiles": "CN1Cc2c(cc(N3CCOCC3)nc2-c2ccccc2OC(F)(F)F)C1=O", "solubility kinetic": 12.1}
{"smiles": "CC(=O)c1c(C)[nH]c(C(=O)Nc2cccc(S(=O)(=O)Nc3cccc(C#N)c3)c2)c1C", "solubility kinetic": 21}
{"smiles": "CCOc1ccc(NC(=O)CC2C(=O)N(c3ccc(F)cc3)C(=O)N2CCc2sccc2C)cc1", "note": "(centres undefined)", "solubility kinetic": "< 1"}
{"smiles": "COc1ccc(CNC(=O)Cn2nc3c(cc2=O)CCCC3)cc1", "solubility kinetic": "> 48"}
{"smiles": "COc1ccc2[nH]c(=O)c(-c3noc(-c4cccs4)n3)cc2c1", "solubility kinetic": "< 1"}
{"smiles": "COc1cccc(CNc2ccc(S(=O)(=O)Nc3cnc4ccccc4c3)cc2)c1O", "solubility kinetic": "< 1"}
{"smiles": "COc1ccc2nc(C)cc(Nc3ccc(Cl)c(Cl)c3)c2c1", "solubility kinetic": "< 1"}
{"smiles": "CNC(=O)C1CCN(c2nc(-c3ccc(Br)cc3)cs2)CC1", "solubility kinetic": 3.67}
{"smiles": "COc1ccc(C2c3c(oc4ccc(C)cc4c3=O)C(=O)N2CCCN2CCOCC2)cc1OC", "note": "(centres undefined)", "solubility kinetic": "> 71"}
{"smiles": "Cc1ccc(S(=O)(=O)Nc2cnccc2C(=O)Nc2ccc(S(=O)(=O)Nc3nccs3)cc2)cc1", "solubility kinetic": "> 63"}
{"smiles": "Cc1ccnc(NC(=S)N2CCN(c3ccc(Cl)c(Cl)c3)CC2)c1", "solubility kinetic": "< 1"}
{"smiles": "CC(=O)c1c(C)[nH]c(C(=O)N(C)C)c1C", "solubility kinetic": "> 31"}
{"smiles": "Fc1cnc(-c2ccccc2C(F)F)nc1NCc1ccc(-c2ccn[nH]2)cc1", "solubility kinetic": "< 1"}
{"smiles": "CCn1nnnc1Sc1ncnc2scc(-c3ccc(C)cc3)c12", "solubility kinetic": 3.32}
{"smiles": "O=[S+]([O-])(Nc1cnc2ccccc2c1)c1ccc(NCc2ccc(Cl)cc2O)cc1", "solubility kinetic": "< 1"}
{"smiles": "C#CCOc1ccc(-c2nnc(Nc3ccc(NC(C)=O)cc3)c3ccccc23)cc1", "solubility kinetic": "< 1"}
{"smiles": "Cc1noc(C)c1CN1CCNc2cc(Nc3ccccc3)ncc2C1", "solubility kinetic": "> 77"}
{"smiles": "COc1ccc(OC)c(CN2CCNc3cc(Nc4ccccc4)ncc3C2)c1", "solubility kinetic": "> 86"}
{"smiles": "Clc1ccccc1Nc1nc(-c2ccncc2)nc2ccccc12", "solubility kinetic": "< 1"}
{"smiles": "O=C(Cc1ccc(-c2csc(Nc3ccc(F)cc3)n2)s1)N1CCOCC1", "solubility kinetic": 2.31}
{"smiles": "Cn1ncnc1[C@H]1c2n[nH]c(=O)c3cc(F)cc(c23)N[C@@H]1c1ccc(F)cc1", "solubility kinetic": "> 38"}
{"smiles": "Cc1ccc(NC(=O)c2ccncc2NS(=O)(=O)c2ccc(C)cc2)cc1", "solubility kinetic": 47.5}
{"smiles": "COc1ccc(N2Cc3cccc(C(=O)Nc4ccc(C(C)C)cc4)c3C2=O)cc1", "solubility kinetic": "< 1"}
{"smiles": "O=C(CCc1ccccc1)Nc1ccc(S(=O)(=O)Nc2nccs2)cc1", "solubility kinetic": 10.6}
{"smiles": "CN(C)c1cc(-c2nc(Nc3ccc(F)c(F)c3)c3ccccc3n2)ccn1", "solubility kinetic": "< 1"}
{"smiles": "CCc1[nH]c2ccc(CNC(=O)Cc3cnc4c(C)cccn34)cc2c1C", "solubility kinetic": 17.3}
{"smiles": "Cc1cc(-c2nnc3n2CCCCC3)c(C)n1-c1ccc(C(F)(F)F)cc1", "solubility kinetic": 43.3}
{"smiles": "CCOc1ccc(/C=C/c2nc3ccccc3n2S(=O)(=O)c2cccc(Cl)c2)cc1", "solubility kinetic": 0.035}
{"smiles": "CN(C)c1cccc(-c2cnc(Nc3cccnc3)c3c2CCO3)c1", "solubility kinetic": "< 1"}
{"smiles": "CCN1C(=O)c2ccccc2S(=O)c2ccc(C(=O)NCc3ccc(OC)cc3)cc21", "note": "(centres undefined)", "solubility kinetic": 10.4}
{"smiles": "CN1CCN(c2ccc(-c3cccc(CN4CCOCC4)c3)cc2NC(=O)c2c[nH]c(=O)cc2C(F)(F)F)CC1", "solubility kinetic": 69.1}
{"smiles": "O=C(Nc1ccc([S+](=O)([O-])Nc2nccs2)cc1)c1ncn[nH]1", "solubility kinetic": "> 52"}
{"smiles": "CCOc1ccccc1C(=O)Nc1ccccc1C(=O)Nc1cccc(S(=O)(=O)C(F)(F)F)c1", "solubility kinetic": 1.57}
{"smiles": "O=S(=O)(Nc1ccccc1N1CCCCC1)c1ccc(Cl)s1", "solubility kinetic": 3.68}
{"smiles": "O=C(Nc1ncc(Cc2ccc(C(F)(F)F)cc2)s1)c1cnc(-c2ccccc2)o1", "solubility kinetic": "< 1"}
{"smiles": "FC(F)(F)c1cccc(N2CCN(C(=S)Nc3nccc4ccccc34)CC2)c1", "solubility kinetic": "< 1"}
{"smiles": "Cc1ccc(-c2csc(NC(=O)c3ccncc3NS(=O)(=O)c3ccc(C)cc3)n2)cc1", "solubility kinetic": "< 1"}
{"smiles": "Cc1ccc(S(=O)(=O)Nc2cnccc2C(=O)Nc2ccc(C#N)cc2)cc1", "solubility kinetic": "> 58"}
{"smiles": "N#Cc1cccc(NC(=O)c2sc3nc4c(cc3c2N)N2CCC4CC2)c1", "solubility kinetic": 5.07}
{"smiles": "Cc1cc(-c2nnc3n2CCCCC3)c(C)n1-c1ccc(C#N)cc1", "solubility kinetic": "> 49"}
{"smiles": "CCCc1ccc(NC(=O)c2ccc3c(c2)NC(=O)CS3)cc1", "solubility kinetic": "< 1"}
{"smiles": "CCN1CCCC1CNC(=O)c1cc(S(=O)(=O)CC)c(N)cc1OC", "note": "(centres undefined)", "solubility kinetic": 36.2}
{"smiles": "CCCNC(=O)Nc1ccc(Oc2ncnc3cc(OC)c(OC)cc23)cc1Cl", "solubility kinetic": 1.55}
{"smiles": "O=S(=O)(Nc1nccs1)c1ccc(NCc2cccc(Br)c2O)cc1", "solubility kinetic": 36.3}
{"smiles": "O=C(Cc1ccc(Cl)cc1)Nc1cnccc1C(=O)O", "solubility kinetic": "> 43"}
{"smiles": "COc1ccc2c(ccn2CCC(=O)Nc2ccc3c(c2)C(=O)N2CCC[C@H]2C(=O)N3)c1", "solubility kinetic": "> 43"}
{"smiles": "CNC(=O)C1CCN(C(=O)c2ccc(-c3ncc4cnc(-c5ccccc5)cn34)cc2)CC1", "solubility kinetic": 40.8}
{"smiles": "CC(=O)N1CCc2cc(S(=O)(=O)NCCC3=CCCCC3)ccc21", "solubility kinetic": 4.37}
{"smiles": "CCc1nnc(NC(=O)c2nc(S(=O)(=O)Cc3ccc(C)cc3)ncc2Cl)s1", "solubility kinetic": "> 65"}
{"smiles": "Cc1ccnc(NC(=S)N2CCCC(Nc3cccc(C(F)(F)F)c3)C2)c1", "note": "(centres undefined)", "solubility kinetic": 11.6}
{"smiles": "CC(=O)c1ccc(N2CCN(S(=O)(=O)c3cc4c(cc3Cl)NC(=O)C4)CC2)cc1", "solubility kinetic": 1.16}
{"smiles": "Nc1ccccc1CNc1ccc(S(=O)(=O)Nc2nccs2)cc1", "solubility kinetic": "> 53"}
{"smiles": "Cc1ccccc1N(C)C1CN([S+](=O)([O-])c2cccc(C(F)(F)F)c2)C1", "solubility kinetic": 1.42}
{"smiles": "Cc1ccc(-c2nnc(Nc3ccc(Br)cc3)c3ccccc23)cc1S(=O)(=O)N1CCN(C)CC1", "solubility kinetic": "< 1"}
{"smiles": "Cc1cc(C)c(C(=O)Nc2cccc([S+](=O)([O-])N3CCCCC3)c2)[nH]1", "solubility kinetic": "< 1"}
{"smiles": "Nc1cccc(CNc2ccc(S(=O)(=O)Nc3nccs3)cc2)c1O", "solubility kinetic": 47.2}
{"smiles": "Cc1cc(-c2nnc3n2CCCCC3)c(C)n1-c1cccc(C#N)c1", "solubility kinetic": "> 49"}
{"smiles": "COc1ccc(-n2nc(C3CCCN(C(=O)c4cccc(OC)c4)C3)[nH]c2=O)cc1", "note": "(centres undefined)", "solubility kinetic": 22.4}
{"smiles": "COC(=O)c1sccc1NC(=O)c1sccc1C", "solubility kinetic": "< 1"}
{"smiles": "Cn1nc(-c2ccccc2F)c2cc(C(=O)Nc3cc(F)ccc3F)sc21", "solubility kinetic": "< 1"}
{"smiles": "CC(=O)c1c(C)c(C(=O)Nc2cccc([S+](=O)([O-])N(C)C)c2)n(C)c1C", "solubility kinetic": 33.2}
{"smiles": "CC(=O)Nc1cccc(-c2nc(-c3c(C)noc3C)cc3c2cc(-c2ccccc2)n3C)c1", "solubility kinetic": "< 1"}
{"smiles": "N#Cc1ccc(-c2csc(N3CCC(C(N)=O)CC3)n2)cc1", "solubility kinetic": 4.34}
{"smiles": "COc1cccc(NC(=S)N2CCN(c3cccc(C(F)(F)F)c3)CC2)n1", "solubility kinetic": 0.435}
{"smiles": "CNc1ncc(-c2cccc3ccccc23)o1", "solubility kinetic": 25.4}
{"smiles": "CO[C@@H]1[C@H](N(C)C(=O)c2ccccc2)C[C@H]2O[C@]1(C)n1c3ccccc3c3c4c(c5c6ccccc6n2c5c31)C(=O)NC4", "solubility kinetic": "< 1"}
{"smiles": "COc1c(Cl)cc2c([nH]c3cnccc32)c1NC(=O)c1cccnc1C", "solubility kinetic": 6.08}
